Results on 27 compounds are retold here after patent US7879846B2, “Serine hydrolase inhibitors” (Kyorin Pharmaceutical Co.., Ltd., priority 2006, dated 2011).

In general, IC50 refers to the concentration that gives 50% inhibition. Usually melting point stands for the temperature of the solid-liquid transition.

Data set [1] relates to LPS-induced increase of lung permeability (Evan's blue dye leakage). The data set can be described thus: Acute lung injury model (lung permeability assay). Type of data set: in vivo. To be noted: male Wistar rats, intratracheal LPS, intravenous infusion 10 mg/kg/hr over 6 hours, Evan's blue dye content of lung. The procedure: Acute Lung Injury Model (Lung Permeability Assay)
Adult male Wistar rats (200-250 g) were anesthetized with an intraperitoneal of pentobarbital (30 mg/kg). Under the anesthesia, lipopolysaccharide (LPS) ([…]) or physiological saline (100 μL/animal) was intratracheally injected. Increase of lung permeability after LPS instillation was measured by Evan's blue dye (EBD) leakage from blood. EBD (40 mg/5 mL/kg) was administered via tail vein 5 hours after the LPS challenge. At 6 hours, animals were exsanguinated by cardiac puncture under deep anesthesia and the pulmonary vessels were perfused with 20 mL saline to ensure the removal of EBD from the vascular spaces. Lungs were removed and EBD was extracted in 6 mL formamide at 65° C. overnight. EBD content was determined by measuring absorbance at 620 nm using a spectrophotometer. The test compound was dissolved in saline with a small amount of 1 N HCl and continuously infused intravenously at a rate of 10 mg/kg/hr over 6 hours starting just after LPS challenge.

The target in data set [2] is T1, Human sputum neutrophil elastase (Homo sapiens, UniProt P08246).
T1 construct: purchased Elastin Products Co; host or cells: human sputum (natural source)
T1 sequence (P08246 30-247 limits assumed): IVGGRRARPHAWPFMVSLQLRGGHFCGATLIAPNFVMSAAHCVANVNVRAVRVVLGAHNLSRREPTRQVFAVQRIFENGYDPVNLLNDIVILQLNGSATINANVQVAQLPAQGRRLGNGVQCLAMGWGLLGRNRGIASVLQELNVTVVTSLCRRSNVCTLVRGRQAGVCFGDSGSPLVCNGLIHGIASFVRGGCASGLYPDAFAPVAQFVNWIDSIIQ
The data set can be described thus: Inhibitor IC50 against human neutrophil elastase (fluorogenic MeOSuc-AAPV-AMC substrate). Type of data set: biochemical. To be noted: 20 min preincubation, read-out: HNE IC50. The essentials:
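Enzyme from human sputum in 200 mM Tris pH 7.4 with 1 mg/ml BSA; MeOSuc-AAPV-AMC at 1×10^−4 M final. Reaction ran 20 min at room temperature, then quenched with 3% (v/v) acetic acid. IC50 from Hill fit of fluorescence versus inhibitor concentration.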

The test system of data set [3] is HNE-induced hemorrhage in the lung. The data set can be described thus: Neutrophil elastase-induced lung hemorrhagic assay. To be noted: Mus musculus, iv, 10 mg/kg intravenously to male balb/c mice 10 min before intratracheal HNE, hemoglobin in BALF 3 h after HNE, vs vehicle-treated controls, read-out: % Inhibition in Murine Lung Hemorrhage Model @ 10 mg/kg. Type of data set: in vivo. An excerpt: Neutrophil Elastase-Induced Lung Hemorrhagic Assay
This in vivo assay is based on estimating the amount of hemorrhage in the lung following intratracheal administration of human neutrophil elastase (HNE). Hemorrhage is quantified by measuring the concentration of hemoglobin in the bronchoalveolar lavage fluid (BALF).
DMSO or saline served as vehicle controls. Mice were anesthetized with halothane and the trachea exposed by a small incision in the neck. Ten minutes after compound administration, mice received 7.5 units/animal of HNE (Elastin Products Co.) dissolved in […] saline. Three hours after HNE instillation, the animals were euthanized with an overdose of urethane. […] Triton X-100 was added to the collected BALF at a final concentration of 0.2% (v/v) to ensure cell disruption.

“And” between values parts separate entries of the source, which are not always exact repeats. Identical values can stand only once. Counter-ions that a name gives are not always drawn. A value given as a limit tells only on which side of the number the result lay.

As for `CCc1cc(OC)cc2nc(-c3cccnc3N3CC[C@H](N(C)C)C3)oc(=O)c12` [Compound 132, 2-[2-((S)-3-Dimethylamino-pyrrolidin-1-yl)-pyridin-3-yl]-5-ethyl-7-methoxy-4H-benz[d][1,3]oxazin-4-one], in data set [1], the “% Inhibition in the ALI model” value was “C (C>30)”. Besides, in data set [2], the IC50 was < 0.015 µM.

Take `Cc1cccc2nc(-c3cccnc3Oc3ccc(Cl)cc3)oc(=O)c12` [Compound 21]: the IC50 in data set [2] fell in the range of 0.016 to 0.06 µM. The inhibition in vivo at 10 mg/kg in data set [3] was < 10%.

With `O=c1oc(-c2cccnc2Oc2ccc(F)cc2)nc2cccc(Cl)c12` [Compound 26], in data set [2], the IC50 was 0.061 to 0.15 µM. The inhibition in vivo at 10 mg/kg in data set [3] lay within 11 to 30%.

`Cc1cccc2nc(-c3ccccn3)oc(=O)c12` [Compound 4]: the IC50 in data set [2] was > 0.15 µM. The inhibition in vivo at 10 mg/kg in data set [3] was > 30%.

`O=c1oc(-c2cccnc2Oc2ccccc2)nc2cccc(C(F)(F)F)c12` [Compound 39]: the IC50 in data set [2] was < 0.015 µM. In addition, the inhibition in vivo at 10 mg/kg in data set [3] is > 30%.

In the case of `CCc1cc(OC)cc2nc(-c3cccnc3N3CC[C@H](N(C)C)C3)oc(=O)c12` (as salt: trifluoroacetate) [Compound 132, 2-[2-((S)-3-Dimethylamino-pyrrolidin-1-yl)-pyridin-3-yl]-5-ethyl-7-methoxy-4H-benz[d][1,3]oxazin-4-one], the melting point was in the range of 117 to 119 °C.

`Cc1cccc2nc(-c3cccnc3N(C)C3CCN(C)C3)oc(=O)c12` (centres unmarked) [Compound 53]: the IC50 in data set [2] fell in the range of 0.061 to 0.15 µM. For the same compound, in data set [3], the inhibition in vivo at 10 mg/kg is 11 to 30%.

Take `Cc1cccc2nc(-c3cccnc3N3CCN(C)C(C)C3)oc(=O)c12` (centres unmarked) [Compound 50]: the IC50 in data set [2] was > 0.15 µM. Moreover, the inhibition in vivo at 10 mg/kg in data set [3] was 11 to 30%.

For `Cc1cccc2nc(-c3cccnc3N3CCC(N(C)C)C3)oc(=O)c12` (centres unmarked) [Compound 46, 2-[2-(3-Dimethylamino-pyrrolidin-1-yl)-pyridin-3-yl]-5-methyl-4H-benz[d][1,3]oxazin-4-one], in data set [2], the IC50 lay within 0.061 to 0.15 µM. Moreover, the inhibition in vivo at 10 mg/kg in data set [3] is > 30%.

Regarding `CCc1cc(OC)cc2nc(-c3cccnc3N3CC[C@H](N(C)C)C3)oc(=O)c12` (as salt: salt) (hydrate or solvate) [Compound 132, 2-[2-((S)-3-Dimethylamino-pyrrolidin-1-yl)-pyridin-3-yl]-5-ethyl-7-methoxy-4H-benz[d][1,3]oxazin-4-one], the melting point is 150 to 159 °C.

For `COCCOCCOCCOCCOc1ncccc1-c1nc2cccc(C)c2c(=O)o1` [Compound 52, 2-[2-(2-{2-[2-(2-Methoxy-ethoxy)-ethoxy]-ethoxy}-ethoxy)-pyridin-3-yl]-5-methyl-4H-benz[d][1,3]oxazin-4-one], the IC50 in data set [2] lay within 0.016 to 0.06 µM. For the same compound, the inhibition in vivo at 10 mg/kg in data set [3] lay within 11 to 30%.

With `CCc1cc(OC)cc2nc(-c3cccnc3N3CC[C@H](N(C)C)C3)oc(=O)c12` (as salt: tartrate) (hydrate or solvate) [Compound 132, 2-[2-((S)-3-Dimethylamino-pyrrolidin-1-yl)-pyridin-3-yl]-5-ethyl-7-methoxy-4H-benz[d][1,3]oxazin-4-one], the melting point was 148 to 155 °C and 144 to 145 °C.

With `Cc1cccc2nc(-c3cccnc3N3CCN(CC4CC4)CC3)oc(=O)c12` [Compound 54], the IC50 in data set [2] was > 0.15 µM. Further, the inhibition in vivo at 10 mg/kg in data set [3] was > 30%.

As for `Cc1cccnc1-c1nc2cccc(Cl)c2c(=O)o1` [Compound 18], in data set [2], the IC50 is 0.016 to 0.06 µM. In addition, the inhibition in vivo at 10 mg/kg in data set [3] was < 10%.

For `CCc1cc(OC)cc2nc(-c3cccnc3N3CCN(CCOC)CC3)oc(=O)c12` [Compound 134], the “% Inhibition in the ALI model” value in data set [1] was “B (B=11-30)”.

For `COCCN1CCN(c2ncccc2-c2nc3cccc(C)c3c(=O)o2)CC1` [Compound 44], the IC50 in data set [2] lay within 0.016 to 0.06 µM. Moreover, the inhibition in vivo at 10 mg/kg in data set [3] was 11 to 30%.

As for `Cc1cccc2nc(-c3cccnc3Oc3ccc(F)cc3)oc(=O)c12` [Compound 36], in data set [2], the IC50 was in the range of 0.016 to 0.06 µM. In addition, the inhibition in vivo at 10 mg/kg in data set [3] is > 30%.

For the compound `Cc1cccc2nc(-c3cccnc3N3CCCC(N(C)C)C3)oc(=O)c12` (centres unmarked) [Compound 49], the IC50 in data set [2] is 0.061 to 0.15 µM. Further, the inhibition in vivo at 10 mg/kg in data set [3] is < 10%.

Regarding `CCc1cc(OC)cc2nc(-c3cccnc3N3CC[N+](C)(C)CC3)oc(=O)c12` [Compound 229], the IC50 in data set [2] was < 0.015 µM.

Turning to `CCc1cccc2nc(-c3cccnc3N(C)CCN(C)C)oc(=O)c12` [Compound 154], the IC50 in data set [2] is < 0.015 µM.

Take `COc1cc(C(C)C)c2c(=O)oc(-c3cccnc3N3CCN(CC4CC4)CC3)nc2c1` [Compound 112]: the IC50 in data set [2] was in the range of 0.061 to 0.15 µM.

Take `CCc1cc(OC)cc2nc(-c3cccnc3N3CC[C@H](N(C)C)C3)oc(=O)c12` (as salt: methanesulfonate) (hydrate or solvate) [Compound 132, 2-[2-((S)-3-Dimethylamino-pyrrolidin-1-yl)-pyridin-3-yl]-5-ethyl-7-methoxy-4H-benz[d][1,3]oxazin-4-one]: the melting point fell in the range of 43 to 49 °C.

As for `CCc1cccc2nc(-c3cccnc3-n3cc[n+](CCCS(=O)(=O)[O-])c3)oc(=O)c12` [Compound 87], in data set [2], the IC50 was < 0.015 µM.

`CCOC(=O)CN1CCN(c2ncccc2-c2nc3cc(OC)cc(CC)c3c(=O)o2)CC1` [Compound 196]: in data set [2], the IC50 was < 0.015 µM.

Take `Cc1cccc2nc(-c3cccnc3Cl)oc(=O)c12` [Compound 20]: in data set [2], the IC50 lay within 0.016 to 0.06 µM.

With `CCc1cccc2nc(-c3cccnc3N3CCC[C@H]3CN3CCCC3)oc(=O)c12` [Compound 98], the half-maximal inhibitory concentration (IC50) in data set [2] is < 0.015 µM.

Consider `CCc1cccc2nc(-c3cccnc3N(C)C3CCN(C)C3)oc(=O)c12` (centres unmarked) [Compound 153], for which, in data set [2], the IC50 lay within 0.016 to 0.06 µM.
